{"source": "patent US6264974A", "about": "“Buccal and sublingual administration of physostigmine” (priority 1998, dated 2001)", "assay": "Intravenous and buccal pharmacokinetics of Physostigmine in rats (plasma levels by HPLC with fluorimetric detector)", "assay_type": "in vivo, male Lewis rats", "settings": "rat plasma, 200 μg/kg, Physostigmine hemisulfate in normal saline", "method": "Lewis Rats were used to evaluate the buccal/sublingual delivery of Physostigmine. The Physostigmine drug concentration in rat plasma was determined using a conventional high pressure liquid chromatography analytical procedure which measures drug concentration by fluorimetric detector.\nTo determine whether Physostigmine would be absorbed by mucosa and produce a sustained plasma level, two separate groups of male Lewis rats, were administered Physostigmine hemisulfate, a salt of Physostigmine, intravenously or buccally in normal saline. The rats weighed approximately 300 g and were fasted overnight prior to dosing. All rats were anesthetized with pentobarbital (50 mg/kg) prior to dosing. The jugular vein was cannulated and attached to a syringe through 3-way stopcock for blood collections. Blood samples (1 ml) were withdrawn through the jugular cannula and replaced with an equal volume of fresh blood (37 degrees C) from separate blood donor rats after each sampling as a function of time. […]\nThe terminal decay rate constant (k) and the terminal half-life (t1/2) after intravenous administration was calculated by linear regression of the terminal portion of the individual sample In Cp (plasma drug concentration) versus time plot of FIG. 1.", "note": "Entries after “also recorded” stand apart in the source; their conditions may differ.", "data": [{"smiles": "CNC(=O)Oc1ccc2c(c1)[C@]1(C)CCN(C)[C@@H]1N2C", "note": "[Physostigmine, 1,2,3,3a,8,8a-hexahydro-1,3a,8-trimethylpyrrolo[2,3-b]indol-5-ol methylcarbamate]", "values": [{"measurement": "half-life", "setting": "0.2 mg/kg, intravenous, FIG. 1, read-out: plasma half-life (terminal half-life, t1/2)", "result": 25, "unit": "min"}, {"measurement": "plasma concentration vs. time profile", "setting": "buccal, esophagus ligated, over eight hours (t1/2 could not be determined), FIG. 2", "result": "did not decay for the period of the experiment; also recorded: highly sustained"}]}]}
